Counter-ions that a name gives are not always drawn.
Tested on: blood, cerebellum, spinal cord
Experiment: Transcriptional profiling, chronic dosing, EAE mice: blood, cerebellum, spinal cord
Type: in vivo
Conditions: for Number of differentially expressed genes identified: Cerebellum / Number of differentially expressed genes identified: Spinal Cord / Number of differentially expressed genes identified: Whole blood: EAE, Chronic Dosing
Procedure: 2011 March 134(Pt3): 678-92. […] FIG. 17 depicts exemplary immunophenotyping panels used to analyze various immune cell populations (e.g., T cells, T regulatory cells, NK cells, B cells, myeloid cells). […] Animals were exposed to CO2 and whole blood collected via cardiac puncture. Two 100 μl aliquots of whole blood were collected in 1.5 mL microcentrifuge tubes and snap frozen in liquid nitrogen. Peripheral (liver, spleen, kidney and jejunum) and CNS brain (cerebellum, hippocampus, striatum and cortex) tissues were harvested and snap frozen in liquid nitrogen, with special care taken to collect tissues of similar size and from the same location. All samples were stored at -80° C. until RNA extraction was conducted. For RNA preparation, frozen tissues were placed in 2 mL RNAse-free 96-well blocks with 1.5 mL QIAzol Lysis Reagent (QIAgen) and a 3.2 mm stainless steel bead (BioSpec Products, Bartlesville, Okla.). Tissues were disrupted for four cycles of 45 seconds in a Mini-Beadbeater (Biospec Products). RNA was extracted in chloroform and the aqueous phase was mixed with an equal volume of 70% ethanol. Extracted RNA was applied to RNeasy 96 plates and purified by the spin method according to the manufacturer's protocol (RNeasy 96 Universal Tissue Protocol, QIAgen, Hilden Germany). 50 ul of snap frozen mouse blood was re-suspended in lysis buffer with proteinase K and arrayed into deep-well plates for automated RNA extraction. RNA extractions were completed on […] (Beckman Coulter, Indianapolis, Ind.) using Agencourt RNAdvance Blood kit (Part number A35604) according to the manufacturer's specifications. RNA integrity was assessed using the HT RNA reagent kit (Part number 760410, Caliper Life Sciences, Hopkinton, Mass.) using a LabChip GX (PerkinElmer, Waltham, Mass.). RNA samples with a RQS score of >8.0 were considered high quality for downstream microarray processing. […] Washing and staining of the hybridized arrays were completed as described in the GeneChip Expression analysis technical manual for HT plate arrays using the Genechip® Array Station (Affymetrix, Santa Clara, Calif.) with modifications as described in […] et al. The processed GeneChip® plate arrays were scanned using GeneTitan scanner (Affymetrix, Santa Clara, Calif.). Affymetrix scans were subject to quality control (QC) measures. These tests included a visual inspection of the distribution of raw signal intensities and an assessment of RNA degradation, relative log expression (RLE), and normalized unscaled standard error (NUSE). All sample scans that passed these QC metrics were included in the analysis. […] Nucleic Acids Res 2003; 31:e15; Li C, et al. Genome Biol 2001; 2:[…]0032). […] Stat Appl Genet Mol Biol 2004; 3:Article3). […] Springer Science+Business Media 2005).

[1] = 100 mpk DMF-vs-90 mpk MMF, 7 h after last dosing
[2] = 100 mpk DMF-vs-90 mpk MMF, 12 h after last dosing
[3] = 100 mpk DMF-vs-Vehicle, 7 h after last dosing
[4] = 100 mpk DMF-vs-Vehicle, 12 h after last dosing
[5] = spinal cord, 100DMF-vs-90MMF, 7 h
[6] = spinal cord, 100DMF-vs-90MMF, 12 h
[7] = spinal cord, 100DMF-vs-Veh, 7 h
[8] = spinal cord, 100DMF-vs-Veh, 12 h
[9] = tissue not given, 100DMF-vs-90MMF, 7 h
[10] = tissue not given, 100DMF-vs-90MMF, 12 h
[11] = 90 mpk MMF-vs-Vehicle, 7 h after last dosing
[12] = 90 mpk MMF-vs-Vehicle, 12 h after last dosing
[13] = spinal cord, 100MMF-vs-Veh, 7 h
[14] = spinal cord, 100MMF-vs-Veh, 12 h
[15] = tissue not given, 100MMF-vs-Veh, 12 h

## COC(=O)/C=C/C(=O)OC [DMF, dimethyl fumarate]
[1]
  Number of differentially expressed genes identified: Cerebellum: 2
  Number of differentially expressed genes identified: Spinal Cord: 2
  Number of differentially expressed genes identified: Whole blood: 0
[2]
  Number of differentially expressed genes identified: Cerebellum: 3
  Number of differentially expressed genes identified: Spinal Cord: 40
  Number of differentially expressed genes identified: Whole blood: 0
[3]
  Number of differentially expressed genes identified: Cerebellum: 0
  Number of differentially expressed genes identified: Spinal Cord: 3
  Number of differentially expressed genes identified: Whole blood: 8
[4]
  Number of differentially expressed genes identified: Cerebellum: 0
  Number of differentially expressed genes identified: Spinal Cord: 3
  Number of differentially expressed genes identified: Whole blood: 8
[5]
  FC 2900055J20Rik (1430675_PM_at): −1.58
  FC LOC100047123 (1446154_PM_at): −1.56
[6]
  FC 1423020_PM_at (no gene symbol): 1.59
  FC 1440425_PM_at (no gene symbol): 1.57
  FC 1440449_PM_at (no gene symbol): 1.61
  FC 1441606_PM_at (no gene symbol): 1.57
  FC 1442650_PM_at (no gene symbol): 1.92
  FC 1442813_PM_at (no gene symbol): 2.21
  FC 1443212_PM_at (no gene symbol): 1.82
  FC 1443237_PM_at (no gene symbol): 1.59
  FC 1444001_PM_at (no gene symbol): 1.58
  FC 1446481_PM_at (no gene symbol): 1.59
  FC 1447354_PM_at (no gene symbol): 1.54
  FC 1458147_PM_at (no gene symbol): 1.60
  FC 1458697_PM_at (no gene symbol): 1.72
  FC 1459235_PM_at (no gene symbol): 1.65
  FC 1459288_PM_at (no gene symbol): 1.66
  FC 1459310_PM_at (no gene symbol): 1.87
  FC 2410089E03Rik 1443422_PM_at: 1.55
  FC 2410089E03Rik (1458493_PM_a_at): 2.00
  FC 4933439F18Rik (1427068_PM_x_at): 1.52
  FC 6330436F06Rik (1433015_PM_at): 1.52
  FC 9330156P08Rik (1458073_PM_at): 2.08
  FC A230006K03Rik (1432408_PM_a_at): 1.59
  FC A730034C02 /// Mtap2 (1421327_PM_at): 1.69
  FC B230112I24Rik (1433187_PM_at): 1.64
  FC BC066028 (1439850_PM_at): 1.56
  FC Cdk14 (1453956_PM_a_at): 1.76
  FC Dnajc27 (1434946_PM_at): 1.85
  FC Dnm3 (1446265_PM_at): 1.54
  FC Fgf14 (1449958_PM_a_at): 1.76
  FC Flnb (1445534_PM_at): 1.55
  FC Gzma (1417898_PM_a_at): −5.32
  FC Htr2c (1450477_PM_at): 1.65
  FC Kif22 (1423813_PM_at): −1.68
  FC Per3 (1442243_PM_at): 1.54
  FC Pole (1448650_PM_a_at): −1.60
  FC Rgs7bp (1437559_PM_at): 1.50
  FC Sema6d (1446536_PM_at): 1.57
  FC Sgol1 (1418919_PM_at): −1.61
  FC Slc25a27 (1440090_PM_at): 1.56
  FC Zfp398 (1456639_PM_at): 1.57
[7]
  FC Aox1 (1419435_PM_at): 1.68
  FC Rnf128 (1418318_PM_at): 1.72
  FC Rnf128 (1449036_PM_at): 1.60
[8]
  FC 1446104_PM_at (no gene symbol): 1.57
  FC Gzma (1417898_PM_a_at): −4.64
  FC Kif22 (1423813_PM_at): −1.62
[9]
  FC 1459289_PM_at (no gene symbol): 1.52
  FC Nr4a2 (1455034_PM_at): −1.51
[10]
  FC 1444901_PM_at (no gene symbol): −1.68
  FC Cyp4f16 /// Gm9705 (1430172_PM_a_at): 1.54
  FC Nr4a3 (1438796_PM_at): −1.82

## COC(=O)/C=C/C(=O)O [MMF, monomethyl fumarate]
[11]
  Number of differentially expressed genes identified: Cerebellum: 2
  Number of differentially expressed genes identified: Spinal Cord: 7
  Number of differentially expressed genes identified: Whole blood: 19
[12]
  Number of differentially expressed genes identified: Cerebellum: 3
  Number of differentially expressed genes identified: Spinal Cord: 2
  Number of differentially expressed genes identified: Whole blood: 7
[13]
  FC Agxt2l1 (1431406_PM_at): 1.78
  FC Cxcl11 (1419697_PM_at): −3.36
  FC Ddx58 (1436562_PM_at): −1.67
  FC Ifi44 (1423555_PM_a_at): −1.99
  FC Ifit1 (1450783_PM_at): −1.67
  FC Plac8 (1451335_PM_at): −2.04
  FC Tor3a (1450454_PM_at): −1.57
[14]
  FC 1439946_PM_at (no gene symbol): −1.62
  FC Dbp (1418174_PM_at): −1.58
Tissue not given, 100MMF-vs-Veh, 7 h
  FC 1459557_PM_at (no gene symbol): 2.30
[15]
  FC 1442025_PM_a_at (no gene symbol): −1.84
  FC 1442026_PM_at (no gene symbol): −1.91
  FC 4933423P22Rik (1454223_PM_at): 1.53

From patent publication US20160115540A1, “PRODRUGS AND DRUGS” (Biogen MA Inc., priority 2013, published 2016)
